Measured values as given in US11707437B2, “Topical formulations with resiniferatoxin nanoparticles and methods” (priority 2019, dated 2023).

Assays:
TRPV1 ion channel = TRPV1 ion channel (UniProt O35433); assay: patch clamp current recordings from HEK cells stably expressing TRPV1; assay type: cell-based; settings: for reversibility of current response by washout: FIG. 3
Procedure: Y axis is current amplitude and X-axis is time indicated by a 2 min bar.

[1] = intraperitoneally in rats, over a period of 9 months; cited from earlier work
TRPV1 receptor = TRPV1 receptor (Homo sapiens, UniProt Q8NER1); settings: cited from earlier work
[2] = tested on: TRPV1 positive peripheral terminals; settings: local intra-dermal administration, rodents; cited from earlier work
[3] = tested on: TRPV1 expressing nerve terminals; settings: intrathecal administration, STZ-induced diabetes; cited from earlier work

TRPV1 receptor, sequence (Q8NER1 whole entry): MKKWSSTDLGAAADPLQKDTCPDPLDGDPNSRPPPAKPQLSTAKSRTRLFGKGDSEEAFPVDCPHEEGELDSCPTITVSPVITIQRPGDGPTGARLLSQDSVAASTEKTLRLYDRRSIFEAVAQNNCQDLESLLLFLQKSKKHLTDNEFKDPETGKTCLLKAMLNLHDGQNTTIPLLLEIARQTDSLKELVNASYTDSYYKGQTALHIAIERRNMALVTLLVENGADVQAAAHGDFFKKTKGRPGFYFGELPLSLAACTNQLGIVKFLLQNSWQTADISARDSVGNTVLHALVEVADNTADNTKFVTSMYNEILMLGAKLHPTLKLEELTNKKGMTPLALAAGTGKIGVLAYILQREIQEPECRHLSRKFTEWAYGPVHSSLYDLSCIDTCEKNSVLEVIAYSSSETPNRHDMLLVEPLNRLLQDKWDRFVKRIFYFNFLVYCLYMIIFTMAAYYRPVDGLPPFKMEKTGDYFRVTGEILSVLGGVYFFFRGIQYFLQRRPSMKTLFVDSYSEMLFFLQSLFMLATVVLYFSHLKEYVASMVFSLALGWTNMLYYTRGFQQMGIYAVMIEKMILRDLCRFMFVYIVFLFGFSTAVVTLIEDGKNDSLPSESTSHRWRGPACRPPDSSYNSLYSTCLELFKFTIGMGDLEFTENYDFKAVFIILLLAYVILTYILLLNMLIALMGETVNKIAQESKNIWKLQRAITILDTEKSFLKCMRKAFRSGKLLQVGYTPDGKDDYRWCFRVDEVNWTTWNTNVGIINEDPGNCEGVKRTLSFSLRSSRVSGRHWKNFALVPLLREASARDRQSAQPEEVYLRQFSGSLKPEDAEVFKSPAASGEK

C=C(C)[C@]12C[C@@H](C)[C@@]34O[C@](Cc5ccccc5)(O[C@@H]1[C@@H]3C=C(COC(=O)Cc1ccc(O)c(OC)c1)C[C@]1(O)C(=O)C(C)=C[C@@H]41)O2 [RTX, Resiniferatoxin]
current activation (TRPV1 ion channel; 7.9 fM to 15.8 pM, after 100 nM capsaicin, rate of activation concentration dependent): activated currents maximally
reversibility of current response by washout (TRPV1 ion channel; RTX 7.9 fM): could not be reversed by washout
concentrations activating TRPV1 ion channels relative to capsaicin (TRPV1 ion channel; RTX at fM to pM concentrations, FIG. 2): five to nine orders of magnitude lower than capsaicin
dose administered without observable side effects [1]: ≤ 0.2 mg/kg
concentrations that fully activate TRPV1 receptor (TRPV1 receptor): femtomolar-picomolar range
pain sensitivity [2]: complete loss of pain sensitivity
effect on thermal hyperalgesia [3]: reversed thermal hyperalgesia

COc1cc(CNC(=O)CCCC/C=C/C(C)C)ccc1O [capsaicin]
reversibility of current response by washout (TRPV1 ion channel; capsaicin 100 nM): could be reversed by washout
